# Earlier results, collected in US20220403162A1, “POLYURETHANE COMPOSITIONS SALTED WITH BISBIGUANIDE” (Lubrizol Advanced Materials, Inc., priority 2019, published 2022).
solubility in water or alcohol (quoted from US 2004/0052831 A1),Structure (SMILES),solubility in water (The Merck Index)
,"N=C(NCCCCCCNC(=N)NC(=N)Nc1ccc(Cl)cc1)NC(=N)Nc1ccc(Cl)cc1.O=C(O)[C@H](O)[C@@H](O)[C@H](O)[C@H](O)CO.O=C(O)[C@H](O)[C@@H](O)[C@H](O)[C@H](O)CO [CHG, chlorhexidine digluconate]",at least 50%
not soluble,"[H]/N=C(\N/C(=N/[H])NCCCCCCNC(=N)NC(=N)Nc1ccc(Cl)cc1)Nc1ccc(Cl)cc1 [Chlorhexidine, 1,6-bis(4-chloro-phenylbiguanido)hexane]",
